Measured values: US20160002247A1, “8-SUBSTITUTED IMIDAZOPYRIMIDINONE DERIVATIVE HAVING AUTOTAXIN INHIBITORY ACTIVITY” (THE UNIVERSITY OF TOKYO, priority 2013, published 2016)

Molecular target: T1, Human autotaxin enzyme (Homo sapiens, UniProt Q13822)
T1 construct: purchased R&D System
Experiment: Evaluation of autotaxin inhibitor, Method C (Test Example 3): 18:0 Lyso PC, choline assay, Resorufin fluorescence
Assay type: biochemical
Conditions: Assay Method C (Test Example 3), human autotaxin, 18:0 Lyso PC substrate; read-out: Inhibitory Activity (autotaxin enzyme inhibitory activity, IC50 class)
Procedure: (Method C) Evaluation of Autotaxin Inhibitor
Solution B containing 100 mM Tris-HCl buffer (pH7.5), 150 mM NaCl, 5 mM MgCl2 and 0.05% Triton X-100 was prepared. Human autotaxin enzyme (purchased from R&D System) was diluted with Solution B, and 2.5 μL of which was added to a solution of test compound in DMSO. Furthermore, 2.5 μl of 200 μM 18:0 Lyso PC (purchased from Avanti Polar Lipids) in Solution B was added and allowed to react at room temperature for 2 hours. After completion of the reaction, 15 μL of the coline assay reagent (100 mM Tris-HCl buffer (pH7.5), 5 mM MgCl2, 77 μg/mL choline oxidase, 10 μg/mL peroxidase, 25 μM 10-acetyl-3,7-dihydroxyphenoxazine and excess autotaxin inhibitor) was added and allowed to react at room temperature for 20 minutes. The fluorescent dye Resorufin, which was produced by the reaction, was detected. The fluorescence was detected using ViewLux (PerkinElmer, Inc.) with an excitation wavelength of 531 nm and a fluorescence wavelength of 598 nm.
The percent inhibition of the test compound was calculated by assuming the sample with no test compound as 0% inhibition and the sample with no enzyme as 100% inhibition, and the percent inhibitions at different concentrations of the test compound were plotted to obtain a concentration-dependent curve.

Row | SMILES | IC50 [nM]
1 | CCCCCn1c(N2CCCC(CC(=O)O)C2)cc(=O)n2cc(-c3ccc(Cl)cc3)nc12 (stereo not drawn) [Compound 319] | 10 to 100
2 | CCCCCn1c(N2CCCC2Cc2ccccc2)cc(=O)n2cc(-c3ccc(Cl)cc3)nc12 (stereo not drawn) [Compound 320] | 100 to 1000
3 | CCCCCn1c(N2CCCC(F)(F)C2)cc(=O)n2cc(-c3ccc(Cl)cc3)nc12 [Compound 321] | 100 to 1000
4 | CCCCCn1c(N2CCC(CCc3ccccc3)C2)cc(=O)n2cc(-c3ccc(Cl)cc3)nc12 (stereo not drawn) [Compound 322] | > 1000
5 | CCCCCn1c(N2CCC(C(F)(F)F)C2)cc(=O)n2cc(-c3ccc(Cl)cc3)nc12 (stereo not drawn) [Compound 323] | 100 to 1000
6 | CCCCCn1c(N2CCC(N3CC(C(=O)OC(C)(C)C)C3)C2)cc(=O)n2cc(-c3ccc(Cl)cc3)nc12 (stereo not drawn) [Compound 324] | 100 to 1000
7 | CCCCCn1c(N2CCC(Cc3ccccc3)C2)cc(=O)n2cc(-c3ccc(Cl)cc3)nc12 (stereo not drawn) [Compound 325] | 100 to 1000
8 | CCCCCn1c(N2CCC[C@H]2C(=O)NCCC(=O)O)cc(=O)n2cc(-c3ccc(Cl)cc3)nc12 [Compound 326] | < 10
9 | CCCCCn1c(N2CCC(c3ccccc3)C2)cc(=O)n2cc(-c3ccc(Cl)cc3)nc12 (stereo not drawn) [Compound 327] | 100 to 1000
10 | CCCCCn1c(N2CCCC(CN)C2)cc(=O)n2cc(-c3ccc(Cl)cc3)nc12 (stereo not drawn) [Compound 328] | 100 to 1000
11 | CCCCCn1c(N2CCC3CNCC32)cc(=O)n2cc(-c3ccc(Cl)cc3)nc12 (stereo not drawn) [Compound 329] | 100 to 1000
12 | CCCCCn1c(N2CCC3(CNC3)C2)cc(=O)n2cc(-c3ccc(Cl)cc3)nc12 [Compound 330] | 100 to 1000
13 | CCCCCn1c(N2CC3CNCC3C2)cc(=O)n2cc(-c3ccc(Cl)cc3)nc12 (stereo not drawn) [Compound 331] | 100 to 1000
14 | CCCCCn1c(N2CCC(C3CNC3)C2)cc(=O)n2cc(-c3ccc(Cl)cc3)nc12 (stereo not drawn) [Compound 332] | 100 to 1000
15 | CCCCCn1c(NC(C)=O)cc(=O)n2cc(-c3ccc(Cl)cc3)nc12 [Compound 333] | 100 to 1000
16 | CCCCCn1c(N2CCC[C@H]2C(=O)O)cc(=O)n2cc(-c3ccc(Cl)cc3)nc12 [Compound 334] | > 1000
17 | CCCCCn1c(N2CCC[C@H]2C(=O)NCCCn2ccnc2)cc(=O)n2cc(-c3ccc(Cl)cc3)nc12 [Compound 335] | 100 to 1000
18 | CCCCCn1c(N2CCC[C@H]2C(=O)N(C)CCC#N)cc(=O)n2cc(-c3ccc(Cl)cc3)nc12 [Compound 336] | 10 to 100
19 | CCCCCn1c(N2CCC[C@H]2C(=O)N2CCC[C@H]2C(=O)O)cc(=O)n2cc(-c3ccc(Cl)cc3)nc12 [Compound 337] | 10 to 100
20 | CCCCCn1c(N2CCC[C@H]2C(=O)NCCCOC)cc(=O)n2cc(-c3ccc(Cl)cc3)nc12 [Compound 338] | 10 to 100
21 | CCCCCn1c(N2CCC[C@H]2C(=O)NCCCO)cc(=O)n2cc(-c3ccc(Cl)cc3)nc12 [Compound 339] | 10 to 100

Row | SMILES | IC50 [nM]
22 | CCCCCn1c(N2CCC[C@H]2C(=O)NCCC(=O)OC)cc(=O)n2cc(-c3ccc(Cl)cc3)nc12 [Compound 340] | 10 to 100
23 | CCCCCn1c(N2CCC[C@H]2C(=O)NCCN2CCCC2=O)cc(=O)n2cc(-c3ccc(Cl)cc3)nc12 [Compound 341] | 10 to 100
24 | CCCCCn1c(N2CCC[C@H]2C(=O)NCCn2ccnc2)cc(=O)n2cc(-c3ccc(Cl)cc3)nc12 [Compound 342] | 100 to 1000
25 | CCCCCn1c(N2CCC[C@H]2C(=O)NCCC(=O)N2CCOCC2)cc(=O)n2cc(-c3ccc(Cl)cc3)nc12 [Compound 343] | 10 to 100
26 | CCCCCn1c(N2CCC[C@H]2C(=O)NCCC(=O)N(C)C)cc(=O)n2cc(-c3ccc(Cl)cc3)nc12 [Compound 344] | 100 to 1000
27 | CCCCCn1c(N2CCC[C@H]2C(=O)NCCCCC(=O)O)cc(=O)n2cc(-c3ccc(Cl)cc3)nc12 [Compound 345] | < 10
28 | CCCCCn1c(N2CCC[C@H]2C(=O)N(C)CCCO)cc(=O)n2cc(-c3ccc(Cl)cc3)nc12 [Compound 346] | 10 to 100
29 | CCCCCn1c(N2CCC[C@H]2C(=O)NC2(CC(=O)OC)CCOCC2)cc(=O)n2cc(-c3ccc(Cl)cc3)nc12 [Compound 347] | 10 to 100
30 | CCCCCn1c(N2CCC[C@H]2C(=O)NCC(=O)O)cc(=O)n2cc(-c3ccc(Cl)cc3)nc12 [Compound 348] | < 10
31 | CCCCCn1c(N2CCC[C@H]2C(=O)N2CCCC2C(=O)O)cc(=O)n2cc(-c3ccc(Cl)cc3)nc12 (stereo partly drawn) [Compound 349] | < 10
32 | CCCCCn1c(N2CCC[C@H]2C(=O)NC(C)(C)CC(=O)O)cc(=O)n2cc(-c3ccc(Cl)cc3)nc12 [Compound 350] | < 10
33 | CCCCCn1c(N2CCC[C@H]2C(=O)NCCCN)cc(=O)n2cc(-c3ccc(Cl)cc3)nc12 [Compound 352] | > 1000
34 | CCCCCn1c(N2CCC[C@H]2C(=O)N(C)CC(=O)O)cc(=O)n2cc(-c3ccc(Cl)cc3)nc12 [Compound 353] | < 10
35 | CCCCCn1c(N2CCC[C@H]2C(=O)NCCCC(=O)O)cc(=O)n2cc(-c3ccc(Cl)cc3)nc12 [Compound 354] | < 10
36 | CCCCCn1c(N2CCC[C@H]2C(=O)NCC(C)C(=O)O)cc(=O)n2cc(-c3ccc(Cl)cc3)nc12 (stereo partly drawn) [Compound 355] | < 10
37 | CCCCCn1c(N2CCC[C@H]2C(=O)NC(C)CC(=O)O)cc(=O)n2cc(-c3ccc(Cl)cc3)nc12 (stereo partly drawn) [Compound 356] | < 10
38 | CCCCCn1c(N(C)C(C)=O)cc(=O)n2cc(-c3ccc(Cl)cc3)nc12 [Compound 361] | > 1000
39 | CCCCCn1c(-c2ccc(C(=O)O)cc2)cc(=O)n2cc(-c3ccc(Cl)cc3)nc12 [Compound 362, 4-(2-(4-chlorophenyl)-5-oxo-8-pentyl-5,8-dihydroimidazo[1,2-a]pyrimidin-7-yl)benzoic acid] | 10 to 100
40 | CCCCCn1c(-c2ccc(C(=O)NCCNC(=O)OCc3ccccc3)cc2)cc(=O)n2cc(-c3ccc(Cl)cc3)nc12 [Compound 363, benzyl 2-(4-(2-(4-chlorophenyl)-5-oxo-8-pentyl-5,8-dihydroimidazo[1,2-a]pyrimidin-7-yl)benzamide)ethylcarbamate] | 10 to 100
41 | CCCCCn1c(-c2ccc(C(=O)NCCN)cc2)cc(=O)n2cc(-c3ccc(Cl)cc3)nc12 [Compound 364, N-(2-aminoethyl)-4-(2-(4-chlorophenyl)-5-oxo-8-pentyl-5,8-dihydroimidazo[1,2-a]pyrimidin-7-yl)benzamide] | 10 to 100
42 | CCCCCn1c(-c2ccc(C(=O)NCCN3CC4(COC4)C3)cc2)cc(=O)n2cc(-c3ccc(Cl)cc3)nc12 [Compound 365] | 10 to 100

Row | SMILES | IC50 [nM]
43 | CCCCCn1c(-c2cnc(OC)nc2)cc(=O)n2cc(-c3ccc(Cl)cc3)nc12 [Compound 373] | 10 to 100
44 | CCCCCn1c(-c2ccc(C(N)=O)cc2)cc(=O)n2cc(-c3ccc(Cl)cc3)nc12 [Compound 375] | 10 to 100
45 | N#CCCCCn1c(-c2ccc(C(=O)NCCN3CCOCC3)cc2)cc(=O)n2cc(-c3ccc(C(F)(F)F)cc3)nc12 [Compound 376] | 10 to 100
46 | CN(C)CCNC(=O)c1ccc(-c2cc(=O)n3cc(-c4ccc(C(F)(F)F)cc4)nc3n2CCCCC#N)cc1 [Compound 377] | 10 to 100
47 | CN(C)CCNC(=O)c1ccc(-c2cc(=O)n3cc(-c4ccc(Cl)cc4)nc3n2CCCCC#N)cc1 [Compound 378] | 10 to 100
48 | CN(C)CCNC(=O)c1ccc(-c2cc(=O)n3cc(-c4ccc(Cl)cc4)nc3n2CCCC(F)(F)F)cc1 [Compound 381] | 10 to 100
49 | NC(=O)c1ccc(-c2cc(=O)n3cc(-c4ccc(Cl)cc4)nc3n2CCCC(F)(F)F)cc1 [Compound 382] | 10 to 100
50 | O=C(NCCN1CCOCC1)c1ccc(-c2cc(=O)n3cc(-c4ccc(Cl)cc4)nc3n2CCCC(F)(F)F)cc1 [Compound 383] | 10 to 100
51 | CN(C)CCNC(=O)c1ccc(-c2cc(=O)n3cc(-c4ccc(C#N)cc4)nc3n2CCCC(F)(F)F)cc1 [Compound 387] | 10 to 100
52 | N#Cc1ccc(-c2cn3c(=O)cc(-c4ccc(C(N)=O)cc4)n(CCCC(F)(F)F)c3n2)cc1 [Compound 388] | 10 to 100
53 | CCCCCn1c(-c2ccc(C(=O)NCCO)cc2)cc(=O)n2cc(-c3ccc(Cl)cc3)nc12 [Compound 390] | 10 to 100
54 | CCCCCn1c(-c2ccc(C(C)=O)cc2)cc(=O)n2cc(-c3ccc(Cl)cc3)nc12 [Compound 391] | 10 to 100
55 | CCCCCn1c(-c2ccc(CO)cc2)cc(=O)n2cc(-c3ccc(Cl)cc3)nc12 [Compound 394] | 10 to 100
56 | CCCCCn1c(-c2ccc(NS(C)(=O)=O)cc2)cc(=O)n2cc(-c3ccc(Cl)cc3)nc12 [Compound 401] | 10 to 100
57 | CCCCCn1c(-c2ccc(C(=O)N3CCCC3)cc2)cc(=O)n2cc(-c3ccc(Cl)cc3)nc12 [Compound 406] | 100 to 1000
58 | CCCCCn1c(-c2cccnc2)cc(=O)n2cc(-c3ccc(Cl)cc3)nc12 [Compound 407] | 10 to 100
59 | CCCCCn1c(-c2cncnc2)cc(=O)n2cc(-c3ccc(Cl)cc3)nc12 [Compound 409] | 10 to 100
60 | CCCCCn1c(-c2ccc(S(=O)(=O)NCCO)cc2)cc(=O)n2cc(-c3ccc(Cl)cc3)nc12 [Compound 412] | 10 to 100
61 | CCCCCn1c(-c2ccc(C(=O)NCCN(C)C)cc2)cc(=O)n2cc(-c3ccc(Cl)cc3)nc12 [Compound 413] | 10 to 100
62 | CCCCCn1c(-c2cnn(CCN3CCOCC3)c2)cc(=O)n2cc(-c3ccc(Cl)cc3)nc12 [Compound 425] | 10 to 100
63 | CCCCCn1c(-c2cc(NC(C)=O)cc(C(=O)O)c2)cc(=O)n2cc(-c3ccc(Cl)cc3)nc12 [Compound 427] | 10 to 100
